Values quoted from earlier work in paper PMC7494335 (Science Advances, 2020).

Tested on: humans
Conditions: in vivo

## NCCc1c[nH]cn1 [histamine]
  pain if injected alone / addition to Dendrocnide extract: neither changed the nature of the pain caused by Dendrocnide extract nor caused substantial long-lasting pain if injected alone
